# Measurements published in ChEMBL document CHEMBL3885881, “DrugMatrix”.
# Organism: Rattus norvegicus
# Assay: DrugMatrix - Regimen: Daily Repeat
# Type: toxicity, organism-based, Sprague-Dawley
# Parameters: regimen Daily Repeat, gender Male, age 6-8 weeks
# Details: in vivo, po, route oral GAVAGE, vehicle 100 % WATER; for ABSOLUTE BASOPHIL / ABSOLUTE EOSINOPHIL / ABSOLUTE LYMPHOCYTE / ABSOLUTE MONOCYTE / ABSOLUTE SEGMENTED NEUTROPHIL / BASOPHIL / EOSINOPHIL / ERYTHROCYTE COUNT / HEMATOCRIT / HEMOGLOBIN / LEUKOCYTE COUNT / LYMPHOCYTE / MEAN CORPUSCULAR HEMOGLOBIN / MEAN CORPUSCULAR HEMOGLOBIN CONCENTRATION / MEAN CORPUSCULAR VOLUME / MONOCYTE / NEUTROPHIL / NUCLEATED RED BLOOD CELLS / PLATELET COUNT: tissue Blood; for ALANINE AMINOTRANSFERASE / ALBUMIN / ALKALINE PHOSPHATASE / ASPARTATE AMINOTRANSFERASE / BLOOD UREA NITROGEN / CARBON DIOXIDE / CHLORIDE / CHOLESTEROL / CREATINE PHOSPHOKINASE / CREATININE / GLUCOSE / LACTATE DEHYDROGENASE / LIPASE / PHOSPHORUS / POTASSIUM / SODIUM / TOTAL BILIRUBIN / TOTAL PROTEIN / URIC ACID: tissue Plasma
# [1] = 0 mg/kg, 72 h, dose level Control, time 3 day
# [2] = 0 mg/kg, 120 h, dose level Control, time 5 day
# [3] = 2200 mg/kg, 72 h, dose level High, time 3 day
# [4] = 2200 mg/kg, 120 h, dose level High, time 5 day
smiles,measurement,setting,value
O.O.O.O.O.O.[Cl-].[Cl-].[Sr+2] [STRONTIUM CHLORIDE HEXAHYDRATE],ABSOLUTE BASOPHIL,[1],0 CELLS/uL
same,ABSOLUTE EOSINOPHIL,[1],151.33 CELLS/uL
same,ABSOLUTE LYMPHOCYTE,[1],10599.5 CELLS/uL
same,ABSOLUTE MONOCYTE,[1],109.5 CELLS/uL
same,ABSOLUTE SEGMENTED NEUTROPHIL,[1],1139.67 CELLS/uL
same,BASOPHIL,[1],0%
same,EOSINOPHIL,[1],0.83%
same,ERYTHROCYTE COUNT,[1],5.54 x10E6/uL
same,HEMATOCRIT,[1],35.35%
same,HEMOGLOBIN,[1],13.22 G/DL
same,LEUKOCYTE COUNT,[1],12 x10E3/uL
same,LYMPHOCYTE,[1],89%
same,MEAN CORPUSCULAR HEMOGLOBIN,[1],23.88 pg
same,MEAN CORPUSCULAR HEMOGLOBIN CONCENTRATION,[1],37.4 G/DL
same,MEAN CORPUSCULAR VOLUME,[1],63.85 fL
same,MONOCYTE,[1],1%
same,NEUTROPHIL,[1],9.17%
same,NUCLEATED RED BLOOD CELLS,[1],0 /100WBC
same,PLATELET COUNT,[1],1333.33 x10E3/uL
same,ALANINE AMINOTRANSFERASE,[1],53.17 u/L
same,ALBUMIN,[1],4.32 G/DL
same,ALKALINE PHOSPHATASE,[1],404.33 u/L
same,ASPARTATE AMINOTRANSFERASE,[1],83.17 u/L
same,BLOOD UREA NITROGEN,[1],15.67 mg/dL
same,CARBON DIOXIDE,[1],27.33 mmol/L
same,CHLORIDE,[1],101.83 MEQ/L
same,CHOLESTEROL,[1],68.67 mg/dL
same,CREATINE PHOSPHOKINASE,[1],276.17 u/L
same,CREATININE,[1],0.18 mg/dL
same,GLUCOSE,[1],163.5 mg/dL
same,LACTATE DEHYDROGENASE,[1],144.67 u/L
same,LIPASE,[1],8.83 u/L
same,PHOSPHORUS,[1],11.72 mg/dL
same,POTASSIUM,[1],5.99 MEQ/L
same,SODIUM,[1],143.57 MEQ/L
same,TOTAL BILIRUBIN,[1],0.2 mg/dL
same,TOTAL PROTEIN,[1],6.1 G/DL
same,URIC ACID,[1],1.38 mg/dL
same,ABSOLUTE BASOPHIL,[2],0 CELLS/uL
same,ABSOLUTE EOSINOPHIL,[2],248.67 CELLS/uL
same,ABSOLUTE LYMPHOCYTE,[2],12977.83 CELLS/uL
same,ABSOLUTE MONOCYTE,[2],19.67 CELLS/uL
same,ABSOLUTE SEGMENTED NEUTROPHIL,[2],1137.17 CELLS/uL
same,BASOPHIL,[2],0%
same,EOSINOPHIL,[2],1.67%
same,ERYTHROCYTE COUNT,[2],5.82 x10E6/uL
same,HEMATOCRIT,[2],36.35%
same,HEMOGLOBIN,[2],13.58 G/DL
same,LEUKOCYTE COUNT,[2],14.38 x10E3/uL
same,LYMPHOCYTE,[2],90.5%
same,MEAN CORPUSCULAR HEMOGLOBIN,[2],23.32 pg
same,MEAN CORPUSCULAR HEMOGLOBIN CONCENTRATION,[2],37.42 G/DL
same,MEAN CORPUSCULAR VOLUME,[2],62.42 fL
same,MONOCYTE,[2],0.17%
same,NEUTROPHIL,[2],7.67%
same,NUCLEATED RED BLOOD CELLS,[2],0 /100WBC
same,PLATELET COUNT,[2],1337.67 x10E3/uL
same,ALANINE AMINOTRANSFERASE,[2],48.5 u/L
same,ALBUMIN,[2],4.32 G/DL
same,ALKALINE PHOSPHATASE,[2],354.33 u/L
same,ASPARTATE AMINOTRANSFERASE,[2],80 u/L
same,BLOOD UREA NITROGEN,[2],16 mg/dL
same,CARBON DIOXIDE,[2],27.33 mmol/L
same,CHLORIDE,[2],100.33 MEQ/L
same,CHOLESTEROL,[2],68 mg/dL
same,CREATINE PHOSPHOKINASE,[2],325.17 u/L
same,CREATININE,[2],0.23 mg/dL
same,GLUCOSE,[2],172 mg/dL
same,LACTATE DEHYDROGENASE,[2],254.83 u/L
same,LIPASE,[2],8.33 u/L
same,PHOSPHORUS,[2],12.17 mg/dL
same,POTASSIUM,[2],6.28 MEQ/L
same,SODIUM,[2],143.57 MEQ/L
same,TOTAL BILIRUBIN,[2],0.18 mg/dL
same,TOTAL PROTEIN,[2],6.12 G/DL
same,URIC ACID,[2],1.78 mg/dL
same,ABSOLUTE BASOPHIL,[3],0 CELLS/uL
same,ABSOLUTE EOSINOPHIL,[3],196.33 CELLS/uL
same,ABSOLUTE LYMPHOCYTE,[3],12931 CELLS/uL
same,ABSOLUTE MONOCYTE,[3],96.33 CELLS/uL
same,ABSOLUTE SEGMENTED NEUTROPHIL,[3],1409.67 CELLS/uL
same,BASOPHIL,[3],0%
same,EOSINOPHIL,[3],1.33%
same,ERYTHROCYTE COUNT,[3],5.23 x10E6/uL
same,HEMATOCRIT,[3],33.33%
same,HEMOGLOBIN,[3],12.6 G/DL
same,LEUKOCYTE COUNT,[3],14.63 x10E3/uL
same,LYMPHOCYTE,[3],88.33%
same,MEAN CORPUSCULAR HEMOGLOBIN,[3],24.13 pg
same,MEAN CORPUSCULAR HEMOGLOBIN CONCENTRATION,[3],37.8 G/DL
same,MEAN CORPUSCULAR VOLUME,[3],63.8 fL
same,MONOCYTE,[3],0.67%
same,NEUTROPHIL,[3],9.67%
same,NUCLEATED RED BLOOD CELLS,[3],0 /100WBC
same,PLATELET COUNT,[3],1378.33 x10E3/uL
same,ALANINE AMINOTRANSFERASE,[3],57.67 u/L
same,ALBUMIN,[3],4.13 G/DL
same,ALKALINE PHOSPHATASE,[3],643.67 u/L
same,ASPARTATE AMINOTRANSFERASE,[3],69.33 u/L
same,BLOOD UREA NITROGEN,[3],15.33 mg/dL
same,CARBON DIOXIDE,[3],26.33 mmol/L
same,CHLORIDE,[3],104.67 MEQ/L
same,CHOLESTEROL,[3],80 mg/dL
same,CREATINE PHOSPHOKINASE,[3],192.67 u/L
same,CREATININE,[3],0.19 mg/dL
same,GLUCOSE,[3],177 mg/dL
same,LACTATE DEHYDROGENASE,[3],86.33 u/L
same,LIPASE,[3],8.33 u/L
same,PHOSPHORUS,[3],12.27 mg/dL
same,POTASSIUM,[3],6.12 MEQ/L
same,SODIUM,[3],145.67 MEQ/L
same,TOTAL BILIRUBIN,[3],0.27 mg/dL
same,TOTAL PROTEIN,[3],5.8 G/DL
same,URIC ACID,[3],1.97 mg/dL
same,ABSOLUTE BASOPHIL,[4],0 CELLS/uL
same,ABSOLUTE EOSINOPHIL,[4],176 CELLS/uL
same,ABSOLUTE LYMPHOCYTE,[4],13256.67 CELLS/uL
same,ABSOLUTE MONOCYTE,[4],0 CELLS/uL
same,ABSOLUTE SEGMENTED NEUTROPHIL,[4],1734 CELLS/uL
same,BASOPHIL,[4],0%
same,EOSINOPHIL,[4],1%
same,ERYTHROCYTE COUNT,[4],5.42 x10E6/uL
same,HEMATOCRIT,[4],34.13%
same,HEMOGLOBIN,[4],13.03 G/DL
same,LEUKOCYTE COUNT,[4],15.17 x10E3/uL
same,LYMPHOCYTE,[4],87.33%
same,MEAN CORPUSCULAR HEMOGLOBIN,[4],24.13 pg
same,MEAN CORPUSCULAR HEMOGLOBIN CONCENTRATION,[4],38.23 G/DL
same,MEAN CORPUSCULAR VOLUME,[4],63.13 fL
same,MONOCYTE,[4],0%
same,NEUTROPHIL,[4],11.67%
same,NUCLEATED RED BLOOD CELLS,[4],0 /100WBC
same,PLATELET COUNT,[4],1262.67 x10E3/uL
same,ALANINE AMINOTRANSFERASE,[4],42.33 u/L
same,ALBUMIN,[4],3.97 G/DL
same,ALKALINE PHOSPHATASE,[4],573.67 u/L
same,ASPARTATE AMINOTRANSFERASE,[4],58.67 u/L
same,BLOOD UREA NITROGEN,[4],16.67 mg/dL
same,CARBON DIOXIDE,[4],29 mmol/L
same,CHLORIDE,[4],99 MEQ/L
same,CHOLESTEROL,[4],78 mg/dL
same,CREATINE PHOSPHOKINASE,[4],220 u/L
same,CREATININE,[4],0.2 mg/dL
same,GLUCOSE,[4],155.33 mg/dL
same,LACTATE DEHYDROGENASE,[4],172.33 u/L
same,LIPASE,[4],8.67 u/L
same,PHOSPHORUS,[4],11.03 mg/dL
same,POTASSIUM,[4],6.01 MEQ/L
same,SODIUM,[4],142.9 MEQ/L
same,TOTAL BILIRUBIN,[4],0.17 mg/dL
same,TOTAL PROTEIN,[4],5.67 G/DL
same,URIC ACID,[4],1.5 mg/dL
